The record followed here is ChEMBL document CHEMBL1141862, “Pyrimido-oxazepine as a versatile template for the development of inhibitors of specific kinases” (Bioorg Med Chem Lett, 2005).

Active and inactive are the calls of the source. The rule behind the calls is not given here.

One assay deals with T1, Aurora kinase A (Homo sapiens, UniProt O14965).
T1 sequence (O14965 whole entry): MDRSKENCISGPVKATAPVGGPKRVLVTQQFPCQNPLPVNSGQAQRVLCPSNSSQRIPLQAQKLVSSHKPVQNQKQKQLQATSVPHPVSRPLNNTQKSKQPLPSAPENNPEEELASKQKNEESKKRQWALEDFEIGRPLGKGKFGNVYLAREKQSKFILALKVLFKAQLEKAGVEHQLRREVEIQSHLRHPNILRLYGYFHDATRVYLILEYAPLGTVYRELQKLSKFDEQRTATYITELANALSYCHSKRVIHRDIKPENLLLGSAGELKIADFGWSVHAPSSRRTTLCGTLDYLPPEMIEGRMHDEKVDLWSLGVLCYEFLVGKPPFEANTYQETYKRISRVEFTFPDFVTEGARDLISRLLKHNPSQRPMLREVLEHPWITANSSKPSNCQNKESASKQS
Put plainly: Inhibitory activity against Aurora A kinase.

Assay [1] concerns the target T2, Receptor-type tyrosine-protein kinase FLT3 (Homo sapiens, UniProt P36888).
T2 sequence (P36888 whole entry): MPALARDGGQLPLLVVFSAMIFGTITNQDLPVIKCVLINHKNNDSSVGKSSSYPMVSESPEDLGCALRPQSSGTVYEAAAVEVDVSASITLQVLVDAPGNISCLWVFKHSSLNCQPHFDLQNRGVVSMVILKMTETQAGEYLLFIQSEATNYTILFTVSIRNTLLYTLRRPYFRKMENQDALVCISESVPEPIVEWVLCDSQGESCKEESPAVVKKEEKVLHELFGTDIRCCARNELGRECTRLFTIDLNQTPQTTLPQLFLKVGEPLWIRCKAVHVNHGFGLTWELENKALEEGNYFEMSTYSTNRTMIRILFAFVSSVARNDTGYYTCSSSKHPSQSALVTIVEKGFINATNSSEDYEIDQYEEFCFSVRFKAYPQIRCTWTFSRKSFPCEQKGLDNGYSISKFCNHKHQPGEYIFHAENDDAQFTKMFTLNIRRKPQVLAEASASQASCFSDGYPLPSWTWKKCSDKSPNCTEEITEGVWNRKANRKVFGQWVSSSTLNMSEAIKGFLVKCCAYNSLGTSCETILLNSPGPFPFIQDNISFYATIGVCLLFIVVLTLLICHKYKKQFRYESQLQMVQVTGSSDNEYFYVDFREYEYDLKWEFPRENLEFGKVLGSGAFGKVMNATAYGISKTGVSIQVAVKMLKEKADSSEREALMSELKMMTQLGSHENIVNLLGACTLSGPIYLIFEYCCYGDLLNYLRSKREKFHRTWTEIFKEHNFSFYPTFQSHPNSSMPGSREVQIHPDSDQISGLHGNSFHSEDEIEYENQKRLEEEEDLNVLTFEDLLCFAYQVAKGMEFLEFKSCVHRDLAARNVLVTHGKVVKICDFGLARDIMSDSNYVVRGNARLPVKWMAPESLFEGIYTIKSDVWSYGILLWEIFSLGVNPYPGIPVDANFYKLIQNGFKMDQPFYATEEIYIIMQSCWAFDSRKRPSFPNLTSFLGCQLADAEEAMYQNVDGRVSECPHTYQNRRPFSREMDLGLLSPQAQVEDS
Put plainly: Inhibitory activity against FLT3 kinase in a HTRF assay.

The target in assay [2] is Fibroblast growth factor receptor 1 (Homo sapiens) (UniProt P11362). Put plainly: Inhibitory activity against FGF1R at 25 uM.
Fibroblast growth factor receptor 1 (Homo sapiens), sequence (P11362 22-822 limits assumed): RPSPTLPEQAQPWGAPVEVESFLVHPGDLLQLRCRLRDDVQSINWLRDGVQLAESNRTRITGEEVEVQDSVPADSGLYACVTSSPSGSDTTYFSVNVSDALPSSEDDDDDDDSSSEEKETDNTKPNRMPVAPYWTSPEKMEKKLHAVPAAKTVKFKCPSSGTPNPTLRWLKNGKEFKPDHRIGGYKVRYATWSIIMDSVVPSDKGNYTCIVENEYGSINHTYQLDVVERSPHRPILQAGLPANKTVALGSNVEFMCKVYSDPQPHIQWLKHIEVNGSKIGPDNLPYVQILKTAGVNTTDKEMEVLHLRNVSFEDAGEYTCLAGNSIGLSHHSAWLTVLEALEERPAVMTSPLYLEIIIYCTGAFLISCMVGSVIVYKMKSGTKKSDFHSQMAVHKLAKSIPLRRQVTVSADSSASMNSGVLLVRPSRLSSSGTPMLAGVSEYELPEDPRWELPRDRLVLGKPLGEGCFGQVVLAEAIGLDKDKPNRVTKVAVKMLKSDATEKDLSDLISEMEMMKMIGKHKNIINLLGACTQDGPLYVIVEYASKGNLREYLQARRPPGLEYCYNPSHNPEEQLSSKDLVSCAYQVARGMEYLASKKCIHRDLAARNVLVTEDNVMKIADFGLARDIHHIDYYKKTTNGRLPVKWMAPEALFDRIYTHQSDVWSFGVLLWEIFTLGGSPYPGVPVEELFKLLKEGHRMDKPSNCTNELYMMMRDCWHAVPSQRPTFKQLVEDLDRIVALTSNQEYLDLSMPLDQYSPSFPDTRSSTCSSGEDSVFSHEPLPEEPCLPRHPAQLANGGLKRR
Assay [3] deals with Insulin-like growth factor 1 receptor (Homo sapiens) (UniProt P08069). In words: Inhibitory activity against IGF1R at 25 uM.
Insulin-like growth factor 1 receptor (Homo sapiens), sequence (P08069 31-736 limits assumed): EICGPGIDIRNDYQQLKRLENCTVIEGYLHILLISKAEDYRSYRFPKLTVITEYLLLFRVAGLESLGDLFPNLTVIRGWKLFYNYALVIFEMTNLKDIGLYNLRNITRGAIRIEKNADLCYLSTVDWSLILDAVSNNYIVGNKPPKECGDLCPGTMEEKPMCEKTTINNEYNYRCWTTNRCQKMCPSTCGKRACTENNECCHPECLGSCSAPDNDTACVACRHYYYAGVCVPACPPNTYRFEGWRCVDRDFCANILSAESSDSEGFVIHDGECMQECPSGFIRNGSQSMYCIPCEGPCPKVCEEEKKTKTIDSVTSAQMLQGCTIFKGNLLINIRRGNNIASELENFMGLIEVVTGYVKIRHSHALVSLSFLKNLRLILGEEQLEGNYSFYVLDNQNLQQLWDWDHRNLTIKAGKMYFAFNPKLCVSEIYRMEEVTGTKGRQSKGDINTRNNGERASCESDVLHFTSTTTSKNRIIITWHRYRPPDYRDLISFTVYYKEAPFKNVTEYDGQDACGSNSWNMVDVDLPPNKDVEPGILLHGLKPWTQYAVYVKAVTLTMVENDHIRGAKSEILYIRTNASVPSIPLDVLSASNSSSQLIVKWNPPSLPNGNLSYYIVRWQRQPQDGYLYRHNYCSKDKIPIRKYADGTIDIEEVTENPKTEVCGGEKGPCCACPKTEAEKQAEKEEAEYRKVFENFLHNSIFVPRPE
Insulin-like growth factor 1 receptor (Homo sapiens), sequence (P08069 741-1367 limits assumed): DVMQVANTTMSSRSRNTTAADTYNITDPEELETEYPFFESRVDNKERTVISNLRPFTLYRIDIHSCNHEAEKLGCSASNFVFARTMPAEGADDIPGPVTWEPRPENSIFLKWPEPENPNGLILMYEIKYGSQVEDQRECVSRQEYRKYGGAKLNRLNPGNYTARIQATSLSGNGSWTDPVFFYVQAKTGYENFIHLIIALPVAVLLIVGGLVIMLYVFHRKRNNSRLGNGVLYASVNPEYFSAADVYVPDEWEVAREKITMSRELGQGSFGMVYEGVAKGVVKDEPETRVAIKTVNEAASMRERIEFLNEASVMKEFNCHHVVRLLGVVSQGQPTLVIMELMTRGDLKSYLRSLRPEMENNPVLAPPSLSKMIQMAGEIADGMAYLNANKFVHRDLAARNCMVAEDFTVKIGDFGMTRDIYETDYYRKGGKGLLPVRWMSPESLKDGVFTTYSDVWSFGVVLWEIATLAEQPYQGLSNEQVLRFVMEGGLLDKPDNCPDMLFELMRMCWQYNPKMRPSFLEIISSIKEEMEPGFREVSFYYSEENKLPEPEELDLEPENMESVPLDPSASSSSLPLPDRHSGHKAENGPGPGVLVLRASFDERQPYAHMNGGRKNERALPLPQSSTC
In a further assay the target is Insulin receptor (Homo sapiens, UniProt P06213). In words: Inhibitory activity against IR.
Insulin receptor, sequence (P06213 28-758 limits assumed): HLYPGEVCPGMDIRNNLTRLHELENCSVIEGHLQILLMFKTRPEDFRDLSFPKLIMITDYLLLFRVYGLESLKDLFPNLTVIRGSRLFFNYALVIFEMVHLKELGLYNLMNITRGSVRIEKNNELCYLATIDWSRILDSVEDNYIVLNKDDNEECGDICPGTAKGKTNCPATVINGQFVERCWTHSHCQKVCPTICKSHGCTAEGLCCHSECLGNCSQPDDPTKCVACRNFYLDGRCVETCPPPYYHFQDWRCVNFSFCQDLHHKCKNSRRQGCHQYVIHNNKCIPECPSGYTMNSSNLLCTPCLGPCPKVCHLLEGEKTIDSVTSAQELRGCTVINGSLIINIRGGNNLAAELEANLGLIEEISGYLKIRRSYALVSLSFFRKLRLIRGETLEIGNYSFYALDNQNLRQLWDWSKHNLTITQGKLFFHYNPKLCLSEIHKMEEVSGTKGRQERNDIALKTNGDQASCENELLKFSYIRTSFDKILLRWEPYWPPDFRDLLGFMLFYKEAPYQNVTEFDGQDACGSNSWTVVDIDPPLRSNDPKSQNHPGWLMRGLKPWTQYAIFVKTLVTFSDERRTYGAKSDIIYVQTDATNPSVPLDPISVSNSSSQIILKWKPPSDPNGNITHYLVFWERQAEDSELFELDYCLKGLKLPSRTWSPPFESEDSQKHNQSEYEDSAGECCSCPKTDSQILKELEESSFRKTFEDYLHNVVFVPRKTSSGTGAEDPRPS
Insulin receptor, sequence (P06213 763-1382 limits assumed): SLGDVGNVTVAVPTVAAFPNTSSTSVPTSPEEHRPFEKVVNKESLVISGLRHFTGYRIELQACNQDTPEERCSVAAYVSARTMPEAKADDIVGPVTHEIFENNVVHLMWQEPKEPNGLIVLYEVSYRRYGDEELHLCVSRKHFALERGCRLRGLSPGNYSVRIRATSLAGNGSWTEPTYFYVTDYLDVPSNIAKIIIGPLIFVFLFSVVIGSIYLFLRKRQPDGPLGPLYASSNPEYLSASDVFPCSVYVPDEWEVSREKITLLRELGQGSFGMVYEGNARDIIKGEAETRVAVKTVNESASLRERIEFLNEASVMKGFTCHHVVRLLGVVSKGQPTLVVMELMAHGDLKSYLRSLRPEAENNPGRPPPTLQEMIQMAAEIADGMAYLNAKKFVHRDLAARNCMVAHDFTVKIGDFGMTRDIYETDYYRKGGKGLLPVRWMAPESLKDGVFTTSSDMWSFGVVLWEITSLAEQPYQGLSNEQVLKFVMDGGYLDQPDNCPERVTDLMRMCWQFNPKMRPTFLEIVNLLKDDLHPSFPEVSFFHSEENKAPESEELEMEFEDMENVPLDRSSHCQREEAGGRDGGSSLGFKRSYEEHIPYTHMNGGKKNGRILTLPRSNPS
Assay [4] addresses T3, Cytoplasmic tyrosine-protein kinase BMX (Homo sapiens) (UniProt P51813).
T3 sequence (whole entry): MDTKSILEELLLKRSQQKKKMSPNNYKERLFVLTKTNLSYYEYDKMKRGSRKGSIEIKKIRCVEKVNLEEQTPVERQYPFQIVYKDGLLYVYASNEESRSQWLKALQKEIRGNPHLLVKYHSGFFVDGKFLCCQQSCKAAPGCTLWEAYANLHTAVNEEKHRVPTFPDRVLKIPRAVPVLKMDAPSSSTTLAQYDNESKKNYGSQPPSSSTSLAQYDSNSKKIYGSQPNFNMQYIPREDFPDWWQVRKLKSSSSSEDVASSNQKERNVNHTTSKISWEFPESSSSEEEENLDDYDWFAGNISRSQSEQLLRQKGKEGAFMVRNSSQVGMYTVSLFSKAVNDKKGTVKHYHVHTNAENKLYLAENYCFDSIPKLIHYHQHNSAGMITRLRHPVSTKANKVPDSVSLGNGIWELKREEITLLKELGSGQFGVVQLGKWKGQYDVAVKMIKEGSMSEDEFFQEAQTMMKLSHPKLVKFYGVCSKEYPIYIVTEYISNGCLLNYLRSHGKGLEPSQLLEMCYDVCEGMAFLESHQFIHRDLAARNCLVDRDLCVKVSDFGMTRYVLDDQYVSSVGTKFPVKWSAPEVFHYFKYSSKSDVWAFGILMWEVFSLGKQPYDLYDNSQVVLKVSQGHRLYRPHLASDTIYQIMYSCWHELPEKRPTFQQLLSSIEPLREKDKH
Put plainly: Inhibitory activity against ETK at 25 uM.

The target in assay [5] is Hepatocyte growth factor receptor (Homo sapiens) (UniProt P08581). Put plainly: Inhibitory activity against c-Met at 25 uM.
Assay [6] addresses Epidermal growth factor receptor (Homo sapiens) (UniProt P00533). Put plainly: Inhibitory activity against EGFR at 25 uM.
Assay [7] deals with Vascular endothelial growth factor receptor 2 (Homo sapiens, UniProt P35968). In words: Inhibitory activity against KDR.
The target in assay [8] is Vascular endothelial growth factor receptor 1 (Homo sapiens) (UniProt P17948). Put plainly: Inhibitory activity against FLT1 at 25 uM.
Vascular endothelial growth factor receptor 1 (Homo sapiens), sequence (P17948 whole entry): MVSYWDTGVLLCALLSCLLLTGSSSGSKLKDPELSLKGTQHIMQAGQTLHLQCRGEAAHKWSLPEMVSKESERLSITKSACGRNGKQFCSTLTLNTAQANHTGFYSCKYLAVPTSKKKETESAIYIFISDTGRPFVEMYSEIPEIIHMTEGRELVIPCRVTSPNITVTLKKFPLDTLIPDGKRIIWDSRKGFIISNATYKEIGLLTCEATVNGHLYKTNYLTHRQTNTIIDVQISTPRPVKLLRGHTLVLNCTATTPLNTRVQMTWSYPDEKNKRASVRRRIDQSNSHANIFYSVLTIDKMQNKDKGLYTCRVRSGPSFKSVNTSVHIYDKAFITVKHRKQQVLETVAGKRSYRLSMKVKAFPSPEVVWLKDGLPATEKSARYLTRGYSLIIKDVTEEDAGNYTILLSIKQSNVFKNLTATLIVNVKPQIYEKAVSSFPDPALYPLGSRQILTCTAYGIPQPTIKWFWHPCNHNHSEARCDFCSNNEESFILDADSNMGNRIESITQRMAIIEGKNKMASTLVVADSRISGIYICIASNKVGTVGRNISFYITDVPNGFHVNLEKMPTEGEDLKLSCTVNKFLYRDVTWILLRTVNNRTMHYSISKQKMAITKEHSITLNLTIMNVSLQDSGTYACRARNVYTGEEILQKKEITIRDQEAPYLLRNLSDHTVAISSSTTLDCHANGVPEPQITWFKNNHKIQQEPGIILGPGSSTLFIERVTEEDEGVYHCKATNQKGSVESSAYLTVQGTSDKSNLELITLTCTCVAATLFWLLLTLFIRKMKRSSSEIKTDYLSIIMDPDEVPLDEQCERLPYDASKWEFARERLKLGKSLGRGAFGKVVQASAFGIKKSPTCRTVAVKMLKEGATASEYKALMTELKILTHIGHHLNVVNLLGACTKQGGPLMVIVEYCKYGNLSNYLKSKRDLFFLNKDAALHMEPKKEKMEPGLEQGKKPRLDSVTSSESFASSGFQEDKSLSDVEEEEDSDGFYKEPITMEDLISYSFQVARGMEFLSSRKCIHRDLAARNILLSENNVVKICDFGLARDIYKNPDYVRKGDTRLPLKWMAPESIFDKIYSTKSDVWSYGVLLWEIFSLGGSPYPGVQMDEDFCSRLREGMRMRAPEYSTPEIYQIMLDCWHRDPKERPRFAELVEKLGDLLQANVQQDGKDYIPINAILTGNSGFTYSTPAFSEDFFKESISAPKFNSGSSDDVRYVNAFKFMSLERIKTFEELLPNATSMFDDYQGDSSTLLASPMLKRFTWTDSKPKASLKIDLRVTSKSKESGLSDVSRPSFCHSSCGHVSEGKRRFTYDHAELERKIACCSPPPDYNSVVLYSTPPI

Regarding `O=C(Nc1ncc(Nc2ncnc3c2NCc2ccccc2O3)cn1)c1ccccc1`, at Aurora kinase A, half-maximal inhibition (IC50) required 1900 nM.

For `CCN(CC)c1ccc2c(c1)Oc1ncnc(Nc3cnc(NC(=O)c4ccccc4)nc3)c1NC2`, the IC50 against Aurora kinase A turned out to be 5000 nM.

`COc1cc2c(cc1OC)Oc1ncnc(Nc3cnc(NC(=O)c4ccccc4)nc3)c1NC2` had a half-inhibitory concentration (IC50) against Aurora kinase A of 470 nM. `O=C(Nc1ccc2c(c1)CNc1c(Cl)ncnc1O2)Nc1ccc(Cl)c(C(F)(F)F)c1` yielded an IC50 in assay [1] of 13700 nM. For the molecule `COc1cccc2c1Oc1ncnc(Nc3cnc(NC(=O)c4ccccc4)nc3)c1NC2`, the IC50 against Aurora kinase A was > 10000 nM.

`COc1cccc2c1CNc1c(Nc3cnc(NC(=O)c4ccccc4)nc3)ncnc1O2` registered an IC50 on Aurora kinase A of 2200 nM. As for `O=C(Nc1ccc2c(c1)C=Nc1c(Cl)ncnc1O2)Nc1ccc(Cl)c(C(F)(F)F)c1`, the outcome in assay [2], in assay [3], in assay [4], in [5], in assay [6] and in assay [8] was inactive. Moreover, the IC50 amounted to 9500 nM on Insulin receptor, 450 nM in assay [1] and 9500 nM in [7].

In turn, `COc1ccc2c(c1)CNc1c(Nc3cnc(NC(=O)c4ccc(C)cc4)nc3)ncnc1O2` registered an IC50 against Aurora kinase A of 3500 nM. The same measure, in the same setting: under `COc1ccc2c(c1)Oc1ncnc(Nc3cnc(NC(=O)c4ccccc4)nc3)c1NC2` stands 600 nM. In turn, `O=C(Nc1ccc2c(c1)CNc1cnc(Cl)nc1O2)Nc1ccc(Cl)c(C(F)(F)F)c1` registered an IC50 in assay [1] of 900 nM.

On Aurora kinase A, `COc1ccc2c(c1)Oc1ncnc(Nc3cnc(NC(=O)c4cccc(F)c4)nc3)c1NC2` displayed a half-maximal inhibitory concentration (IC50) of 320 nM. The same measure, in the same setting: with `Cc1ccc(C(=O)Nc2ncc(Nc3ncnc4c3NCc3ccccc3O4)cn2)cc1` the figure was 3700 nM. The same measure, in the same setting: with `COc1ccc2c(c1)CNc1c(Nc3cnc(NC(=O)c4ccccc4)nc3)ncnc1O2` the figure was 970 nM. Turning to `COc1cc2c(cc1OC)Oc1ncnc(Nc3cnc(NC(=O)c4cccc(F)c4)nc3)c1NC2`, the concentration for half-maximal inhibition (IC50) on Aurora kinase A stood at 1100 nM. Same read-out and setting: under `COc1ccc2c(c1)Oc1ncnc(Nc3cnc(NC(=O)c4ccc(F)cc4)nc3)c1NC2` stands 330 nM; under `COc1cc2c(cc1OC)Oc1ncnc(Nc3cnc(NC(=O)c4ccc(C)cc4)nc3)c1NC2`, 1200 nM; under `COc1ccc2c(c1)CNc1c(Nc3cnc(NC(=O)c4cccc(F)c4)nc3)ncnc1O2`, 1100 nM.
